# “Also recorded” adds a separate entry of the source.
# Tested on: 504 cancer cell lines
# Experiment: Drug sensitivity (IC50 index) of cancer cell lines with versus without a mutation in a module, compared by T-test
# Assay type: cell-based
# Details: for T-Statistic, sensitivity to drug vs mutation in module: T-test of IC50 scores, cell lines with vs without mutation
# From the text: An inference engine can be used to identify an association between drug sensitivity of a sample and module activity or mutation status. For example, by using a statistical test to compare the IC 50 indexes or other measures of drug sensitivity known to those skilled in the art, for two or more classes of samples determined by the presence or absence of a mutation within a module of interest or determined by a module feature (e.g. high or low activity). A statistical test, such as, for example, a T-test or Wilcoxon test or another test known to those skilled in the art can be used to compare the IC50 scores across two sets of samples. By way of example and not of limitation, an ANOVA analysis can be used to compare such scores over two or more classes of samples.
# Change in drug sensitivity conditional on sample class determined by module activity or mutation status can be computed, for example, by using a statistical test by comparing, for example, the IC 50 indexes or other measures of drug sensitivity known to those skilled in the art, for two or more classes of samples. A statistical test, such as, for example, a T-test or Wilcoxon test or another test known to those skilled in the art can be used to compare the IC50 scores across two sets of samples. By way of example and not of limitation, an ANOVA analysis can be used to compare such scores over two or more classes of samples.
# The Broad GDAC Firehose provides publicly-available preprocessed TCGA level 3 data and level 4 analyses packaged in a form amenable to immediate algorithmic intake (Marx, V. et al. Nat. Methods 10, 293-297 (2013); incorporated by reference in its entirety). From this resource gene mutations were obtained, copy-number variants and mRNA expression levels (microarray and RNAseq) for human subjects as well as selected clinical data such as overall patient survival and the list of administered oncology drugs for each patient were also obtained. Molecular data (including somatic mutations) as well as drug sensitivity data for 504 cancer cell lines were obtained, deposited and made publicly available by the Sage Bionetworks Synapse platform (Friend, S. et al. Cancer Discov. 2, 658 (2012); hereby incorporated by reference in its entirety).
# A multidimensional multiscale map was generated where module colors indicate the change in drug sensitivity depending on the mutation status of a given module (i.e. module can contain a mutation in one of the genes or not) [FIG. 11]. The change is computed by comparing drug sensitivity for samples with or without mutations within genes belonging to a module. Drug sensitivity was measured by the IC 50 index (Soothill, J. S. et al. J. Antimicrob. Chemother. 29, 137-139 (1992); hereby incorporated by reference in its entirety). A T-test was used to compare the IC50 scores across two sets of samples. […] Cell lines with a relevant mutation are indicated as “1” in the boxplot and tend to have lower IC 50 values indicating higher sensitivity to AZD6244.
# [1] = mutations in genes of module 16157
# [2] = mutations in genes of module 16873
# [3] = mutations in genes of module 17552
# [4] = mutations in genes of module 17611
SMILES,"T-Statistic, sensitivity to drug vs mutation in module (mutation in module 16157)","T-Statistic, sensitivity to drug vs mutation in module (mutation in module 16873)","T-Statistic, sensitivity to drug vs mutation in module (mutation in module 17552)","T-Statistic, sensitivity to drug vs mutation in module (mutation in module 17611)",change in drug sensitivity with module mutation [1],change in drug sensitivity with module mutation [2],change in drug sensitivity with module mutation [3],change in drug sensitivity with module mutation [4],"change in drug sensitivity with module mutation (module number 17454 as printed, FIG. 11)"
O=C(NOC[C@H](O)CO)c1ccc(F)c(F)c1Nc1ccc(I)cc1F [PD.0325901],−6.692,−10.52,−8.774,−7.111,more sensitive,more sensitive,more sensitive,more sensitive,
Cn1cnc2c(F)c(Nc3ccc(Br)cc3Cl)c(C(=O)NOCCO)cc21 [AZD6244],−6.876,−9.937,−8.56,−7.071,more sensitive,more sensitive,increased sensitivity; also recorded: more sensitive,more sensitive,increased sensitivity
